# Test results as given in patent US8034806B2, “Bicyclic mGluR5 positive allosteric modulators and methods of making and using same” (Vanderbilt University, priority 2007, dated 2011).
# Molecular target: T1, rat mGluR5 (Rattus norvegicus, UniProt P31424)
# T1 construct: expressed in transfected cells; host or cells: HEK (human embryonic kidney) cells
# Assay: Potentiation of glutamate response, calcium fluorescence (FDSS) in HEK cells transfected with rat mGluR5
# Type: cell-based
# Settings: for mGluR5 Potentiator Max: maximum extent of potentiation, normalized to the maximal response to agonist, in % (unit assumed); for EC50: HEK cells transfected with rat mGluR5, EC20 concentration of glutamate, read-out: mGluR5 Potentiator EC50
# Procedure: Human embryonic kidney (HEK) cells transfected with rat mGluR5 were plated in clear bottom assay plates for assay in a Functional Drug Screening System (FDSS). The cells were loaded with a […] fluorescent dye (e.g., Fluo-4), and the plates were washed and placed in the FDSS instrument. After establishment of a fluorescence baseline for twelve seconds, the compounds of the present invention were added to the cells, and the response in cells was measured. Five minutes later, an mGluR5 agonist (e.g., glutamate, 3,5-dihydroxyphenylglycine, or quisqualate) was added to the cells, and the response of the cells was measured. Potentiation of the agonist response of mGluR5 by the compounds in the present invention was observed as an increase in response to non-maximal concentrations of agonist (here, glutamate) in the presence of compound compared to the response to agonist in the absence of compound.
# The above described assay operated in two modes. In the first mode, a range of concentrations of the present compounds were added to cells, followed by a single fixed concentration of agonist. If a compound acted as a potentiator, an EC50 value for potentiation and a maximum extent of potentiation by the compound at this concentration of agonist was determined by non-linear curve fitting. In the second mode, several fixed concentrations of the present compounds were added to various wells on a plate, followed by a range of concentrations of agonist for each concentration of present compound; the EC50 values for the agonist at each concentration of compound were determined by non-linear curve fitting. A decrease in the EC50 value of the agonist with increasing concentrations of the present compounds (a leftward shift of the agonist concentration-response curve) is an indication of the degree of mGluR5 potentiation at a given concentration of the present compound. An increase in the EC50 value of the agonist with increasing concentrations of the present compounds (a rightward shift of the agonist concentration-response curve) is an indication of the degree of mGluR5 antagonism at a given concentration of the present compound. The second mode also indicates whether the present compounds also affect the maximum response to mGluR5 to agonists.
# Human embryonic kidney (HEK) cells transfected with rat mGluR5 were plated in clear-bottomed, poly-D-lysine-coated assay plates in glutamate-glutamine-free medium growth and incubated overnight at 37° C. in 5% CO2. The following day, cells were loaded with 2 μM calcium indicator dye, fluo-4 AM, for 1 h at 37° C. Dye was removed and replaced with assay buffer containing 1× Hanks balanced salt solution (Invitrogen, Carlsbad, Calif.), 20 mM HEPES, and 2.5 mM probenecid, pH 7.4. Cell plates were then loaded into the Functional Drug Screening System 6000 (FDSS 6000, Hamamatsu, Japan). After establishment of a fluorescence baseline for twelve seconds, the compounds of the present invention were added to the cells, and the response in cells was measured. Five minutes later, an mGluR5 agonist (e.g., glutamate, 3,5-dihydroxyphenylglycine, or quisqualate) was added to the cells, and the response of the cells was measured during a 1 minute incubation with agonists. Typically, the effect of test compounds of the present invention was on an EC20 concentration of glutamate was measured. All test compounds were dissolved and diluted in 100% DMSO and then serially diluted into assay buffer for a 2.5× stock in 0.25% DMSO; stock compounds were then added to the assay for a final DMSO concentration of 0.1%. Calcium fluorescence measures were recorded as fold over basal fluorescence; raw data was then normalized to the maximal response to agonist. Potentiation of the agonist response of mGluR5 by the compounds in the present invention was observed as an increase in response to non-maximal concentrations of agonist (here, glutamate) in the presence of compound compared to the response to agonist in the absence of compound. […]
# T1 sequence (P31424 21-1203): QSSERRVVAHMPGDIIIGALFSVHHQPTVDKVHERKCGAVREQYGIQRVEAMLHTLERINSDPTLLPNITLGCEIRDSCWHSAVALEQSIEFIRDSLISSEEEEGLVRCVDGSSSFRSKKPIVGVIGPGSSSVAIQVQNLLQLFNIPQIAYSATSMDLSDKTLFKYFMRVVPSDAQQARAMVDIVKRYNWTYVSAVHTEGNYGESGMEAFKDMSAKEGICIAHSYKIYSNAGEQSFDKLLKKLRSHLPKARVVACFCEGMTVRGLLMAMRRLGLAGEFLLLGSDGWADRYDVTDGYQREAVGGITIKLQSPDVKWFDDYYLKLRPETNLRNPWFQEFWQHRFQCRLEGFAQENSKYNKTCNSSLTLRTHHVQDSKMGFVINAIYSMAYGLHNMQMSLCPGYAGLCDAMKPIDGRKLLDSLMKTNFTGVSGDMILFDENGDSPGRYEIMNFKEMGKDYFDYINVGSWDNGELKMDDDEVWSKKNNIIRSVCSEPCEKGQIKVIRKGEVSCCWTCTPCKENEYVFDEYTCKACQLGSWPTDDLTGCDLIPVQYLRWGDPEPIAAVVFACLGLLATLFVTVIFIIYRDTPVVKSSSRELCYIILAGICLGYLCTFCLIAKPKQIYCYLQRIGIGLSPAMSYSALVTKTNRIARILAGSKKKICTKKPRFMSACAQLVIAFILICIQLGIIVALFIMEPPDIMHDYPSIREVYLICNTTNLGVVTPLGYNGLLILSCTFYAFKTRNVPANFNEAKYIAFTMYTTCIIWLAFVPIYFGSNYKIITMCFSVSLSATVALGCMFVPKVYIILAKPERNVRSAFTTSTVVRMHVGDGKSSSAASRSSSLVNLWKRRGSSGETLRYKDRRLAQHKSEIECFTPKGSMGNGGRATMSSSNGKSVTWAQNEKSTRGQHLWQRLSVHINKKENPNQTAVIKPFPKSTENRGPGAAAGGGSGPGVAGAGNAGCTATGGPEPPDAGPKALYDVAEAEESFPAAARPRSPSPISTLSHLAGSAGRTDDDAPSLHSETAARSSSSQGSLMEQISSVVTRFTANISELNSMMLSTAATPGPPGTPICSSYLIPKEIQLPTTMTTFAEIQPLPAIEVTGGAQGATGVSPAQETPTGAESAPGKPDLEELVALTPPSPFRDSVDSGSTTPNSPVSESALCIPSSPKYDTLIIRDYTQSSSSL
mGluR5 Potentiator Max,EC50,SMILES
35.6,3000 nM,O=C1NCCc2cc(C#Cc3cc(F)cc(F)c3)ccc21 [VU000116]
28.6,–,O=C1NCCc2cc(C#Cc3ccc(Cl)cc3)ccc21 [VU000113]
49.7,3670 nM,Cc1cc(C#Cc2ccc3c(c2)CCNC3=O)ccc1F [VU000112]
28.2,–,COc1ccc(C#Cc2ccc3c(c2)CCNC3=O)cc1 [VU000109]
53.2,4890 nM,O=C1NCCc2cc(C#Cc3ccccc3Cl)ccc21 [VU000111]
58.1,3390 nM,COc1cccc(C#Cc2ccc3c(c2)CCNC3=O)c1 [VU000110]
29.7,–,COc1ccc(C#Cc2ccc3c(c2)CCNC3=O)c(C)c1 [VU000119]
81,259 nM,O=C1NCCc2cc(C#Cc3ccc(F)cc3)ccc21 [VU000107]
28.9,–,CN(C)c1ccc(C#Cc2ccc3c(c2)CCNC3=O)cc1 [VU000118]
58,243 nM,O=C1NCCc2cc(C#Cc3ccncc3)ccc21 [VU000117]
67.9,470 nM,O=C1NCCc2cc(C#Cc3cccc(Cl)c3)ccc21 [VU000114]
75.7,172 nM,Cc1cccc(C#Cc2ccc3c(c2)CCNC3=O)c1 [VU000106]
33.5,–,O=C1NCCc2cc(C#Cc3cccc(C(F)(F)F)c3)ccc21 [VU000120]
58.7,853 nM,O=C1NCCc2cc(C#Cc3ccc(F)cc3F)ccc21 [VU000115]
53.4,612 nM,Cc1ccccc1C#Cc1ccc2c(c1)CCNC2=O [VU000105]
80.4,145 nM,O=C1NCCc2cc(C#Cc3ccccc3F)ccc21 [VU000108]

# Continued, compound first:
SMILES,mGluR5 Potentiator Max,EC50
O=C(CN1CCc2cc(C#Cc3ccccc3)ccc2C1=O)N1CCC(O)CC1 [VU000128],37.6,–
O=C1NCCc2cc(C#Cc3ccccc3C(F)(F)F)ccc21 [VU000121],34.8,–
O=C1c2ccc(C#Cc3ccccc3)cc2CCN1CCN1CCC(O)CC1 [VU000102],45.7,4040 nM
O=C1c2ccc(C#Cc3ccccc3)cc2CCN1CC1CCC1 [VU000099],90.7,26.7 nM
CCCN1CCc2cc(C#Cc3ccccc3)ccc2C1=O [VU000069],96.5,16.2 nM
COCCNC(=O)CN1CCc2cc(C#Cc3ccccc3)ccc2C1=O [VU000127],52.3,3060 nM
O=C(CN1CCc2cc(C#Cc3ccccc3)ccc2C1=O)NC1CC1 [VU000125],52.6,3080 nM
O=C1c2ccc(C#Cc3ccccc3)cc2CCN1Cc1ccccc1 [VU000071],89.9,546 nM
O=C(CN1CCc2cc(C#Cc3ccccc3)ccc2C1=O)N1CCOCC1 [VU000130],55.4,2350 nM
CCCCN1CCc2cc(C#Cc3ccccc3)ccc2C1=O [VU000070],96.7,96 nM
CN1CCN(C(=O)CN2CCc3cc(C#Cc4ccccc4)ccc3C2=O)CC1 [VU000131],35.4,7200 nM
CCOC(=O)C(CC)N1CCc2cc(C#Cc3ccccc3)ccc2C1=O (stereo not shown) [VU000073],85.4,87.7 nM
O=C1c2ccc(C#Cc3ccccc3)cc2CCN1CCN1CCC1 [VU000100],76.3,4040 nM
CN(C)CCNC(=O)CN1CCc2cc(C#Cc3ccccc3)ccc2C1=O [VU000126],35.4,1.66 nM
O=C1c2ccc(C#Cc3ccccc3)cc2CCN1CCN1CCOCC1 [VU000101],84,3570 nM
O=C(CN1CCc2cc(C#Cc3ccccc3)ccc2C1=O)OCc1ccccc1 [VU000072],88.4,77.3 nM
CN1CCc2cc(C#Cc3ccccc3)ccc2C1=O [VU000068],53.4,25.4 nM
O=C(CN1CCc2cc(C#Cc3ccccc3)ccc2C1=O)NCC1CC1 [VU000124],53.7,953 nM
O=C(CN1CCc2cc(C#Cc3ccccc3)ccc2C1=O)NCCN1CCCCC1 [VU000129],30,–
O=C1c2ccc(C#Cc3ccccc3)cc2CCN1CC1CC1 [VU000098],69.4,17.5 nM
